{
  "source": "patent EP3889262A1",
  "about": "“INHIBITION OF CASPASE-3 BY THE MICRORNA 126-5P” (Ludwig-Maximilians-Universität München, priority 2020, dated 2021)",
  "key": {"HUVECs": {"tested_on": "HUVECs", "experiment": "qPCR of miR-126 strand amounts and nucleo-cytoplasmic distribution in HUVECs", "format": "cell-based, human", "conditions": "for nuclear miR-126-5p: fractional qPCR, ivermectin with rapamycin, 3-methyladenine with KLF2 overexpression", "description": "HUVECs were treated with rapamycin (Santa Cruz Biotechnology) at 5 µM, ivermectin (Santa Cruz Biotechnology) at […], 3-methyladenine (Sigma Aldrich) at 5 mM, and/or camptothecin (Abcam) at 500 nM. Unless stated otherwise, treatment was applied for 3 h to analyze early processes and to avoid activation of concomitant or compensatory mechanisms. RNA interference technology was applied to generate specific knockdowns with siRNA against ATG5, ATG7, Mex3a (Qiagen). Functional studies on miRNA function were carried with miScript miRNA mimics and inhibitors of miR-126-5p (Qiagen). Overexpression of KLF2 and Mex3a were obtained by pCMV-hKLF2 and pCMV-hMex3a plasmids. Transfections were performed by electroporation using Amaxa Nucleofector technology (Lonza) or Lipofectamine™ 2000 (ThermoFisher Scientific) according to the manufacturer's protocols."}, "recombinant caspase-3": {"molecular_target": "T1, recombinant caspase-3 (Homo sapiens, UniProt P42574)", "T1 sequence (P42574 29-175 limits assumed)": "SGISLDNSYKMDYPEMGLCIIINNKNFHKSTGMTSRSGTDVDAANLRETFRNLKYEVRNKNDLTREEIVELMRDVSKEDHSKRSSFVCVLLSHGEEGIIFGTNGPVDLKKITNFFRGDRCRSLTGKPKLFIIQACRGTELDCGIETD", "T1 sequence (P42574 176-277 limits assumed)": "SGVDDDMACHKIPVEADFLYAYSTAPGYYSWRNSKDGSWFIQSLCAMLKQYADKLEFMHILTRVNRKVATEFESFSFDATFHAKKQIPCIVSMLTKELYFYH", "experiment": "Cell-free analysis of caspase-3 activity (substrate cleavage)", "format": "biochemical", "conditions": "substrate cleavage by recombinant caspase-3, cell-free"}},
  "note": "Peptide text beside a SMILES is read from it. * marks the point of attachment. Cbz = O=C(OCc1ccccc1)*; CH2F = FC*",
  "data": [
    {"compound": "Cn1cnc(N)c2ncnc1-2", "note": "[3-methyladenine]", "values": [
      {"measurement": "nuclear miR-126-5p", "setting": "HUVECs", "result": "blunted"}
    ]},
    {"compound": "COC(=O)C[C@H](NC(=O)[C@H](C)NC(=O)[C@@H](NC(=O)OCc1ccccc1)C(C)C)C(=O)CF", "note": "[Z-VAD-FMK] (Cbz-Val-Ala-Asp(OMe)-CH2F)", "values": [
      {"measurement": "IC50", "setting": "recombinant caspase-3", "result": 75.9, "unit": "µM"}
    ]},
    {"compound": "CO/C1=C\\C(C)=C\\[C@@H](C)[C@@H](O)[C@@H](C)C/C(C)=C/C=C/[C@H](OC)[C@@H]([C@@H](C)[C@@H](O)[C@H](C)[C@@]2(O)C[C@@H](O)[C@H](C)[C@@H](C(C)C)O2)OC1=O", "note": "[bafilomycin]", "values": [
      {"measurement": "amount of miR-126-3p", "setting": "HUVECs; ECs", "result": "restored"}
    ]},
    {"compound": "ivermectin", "values": [
      {"measurement": "nuclear miR-126-5p", "setting": "HUVECs", "result": "prevented"}
    ]}
  ]
}
